Test results as given in patent US12599136B2, “Substituted isophthalic acid diamides and their use as herbicides” (Bayer Aktiengesellschaft, priority 2020, dated 2026).

Key:
Assay type in all cases: in vivo
Echinochloa crus-galli [1] = assay: Post-emergence herbicidal action against ECHCG; conditions: visual assessment about 3 weeks after treatment
Procedure, shortened: (§1)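 Visual % rating (0% = as untreated, 100% = dead) ~3 wk after spraying one-leaf-stage plants grown in sandy loam; WP/EC in water at 600–800 l/ha, 0.2% wetting agent.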

Viola tricolor [2] = assay: Post-emergence herbicidal action against VIOTR
Procedure, shortened: as §1

Alopecurus myosuroides [3] = assay: Post-emergence herbicidal action against ALOMY
Procedure, shortened: as §1

Matricaria inodora [4] = assay: Pre-emergence herbicidal action against MATIN; conditions: visual score after 3 weeks vs untreated controls
Procedure, shortened: (§2)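 Sandy loam pots, seeds covered with soil, then surface-treated with WP or EC formulations at 600–800 l/ha water plus 0.2% wetting agent. Greenhouse, 3 weeks. Percent damage vs untreated controls.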

Pharbitis purpurea [5] = assay: Post-emergence herbicidal action against PHBPU; conditions: for Post-emergence action against PHBPU in %: visual assessment about 3 weeks after treatment
Procedure, shortened: as §1

Cyperus esculentus [6] = assay: Pre-emergence herbicidal action against CYPES; conditions: 320 g/ha; visual score after 3 weeks vs untreated controls
Procedure, shortened: as §2

Abutilon theophrasti [7] = assay: Post-emergence herbicidal action against ABUTH
Procedure, shortened: as §1

Matricaria inodora [8] = assay: Post-emergence herbicidal action against MATIN; conditions: for Post-emergence action against MATIN in %: visual assessment about 3 weeks after treatment
Procedure, shortened: as §1

Hordeum murinum [9] = assay: Pre-emergence herbicidal action against HORMU; conditions: visual score after 3 weeks vs untreated controls
Procedure, shortened: as §2

Polygonum convolvulus [10] = assay: Post-emergence herbicidal action against POLCO; conditions: 80 g/ha, visual assessment about 3 weeks after treatment
Procedure, shortened: as §1

Amaranthus retroflexus [11] = assay: Post-emergence herbicidal action against AMARE; conditions: visual assessment about 3 weeks after treatment
Procedure, shortened: as §1

Avena fatua [12] = assay: Pre-emergence herbicidal action against AVEFA; conditions: visual score after 3 weeks vs untreated controls
Procedure, shortened: as §2

Veronica persica [13] = assay: Pre-emergence herbicidal action against VERPE; conditions: 320 g/ha
Procedure, shortened: as §2

Hordeum murinum [14] = assay: Post-emergence herbicidal action against HORMU
Procedure, shortened: as §1

Viola tricolor [15] = assay: Pre-emergence herbicidal action against VIOTR
Procedure, shortened: as §2

Alopecurus myosuroides [16] = assay: Pre-emergence herbicidal action against ALOMY; conditions: visual score after 3 weeks vs untreated controls
Procedure, shortened: as §2

Avena fatua [17] = assay: Post-emergence herbicidal action against AVEFA; conditions: for Post-emergence action against AVEFA in %: visual assessment about 3 weeks after treatment
Procedure, shortened: as §1

Amaranthus retroflexus [18] = assay: Pre-emergence herbicidal action against AMARE; conditions: visual score after 3 weeks vs untreated controls
Procedure, shortened: as §2

Stellaria media [19] = assay: Post-emergence herbicidal action against STEME; conditions: for Post-emergence action against STEME in %: visual assessment about 3 weeks after treatment
Procedure, shortened: as §1

Lolium rigidum [20] = assay: Post-emergence herbicidal action against LOLRI; conditions: 80 g/ha
Procedure, shortened: as §1

Polygonum convolvulus [21] = assay: Pre-emergence herbicidal action against POLCO; conditions: 320 g/ha
Procedure, shortened: as §2

Veronica persica [22] = assay: Post-emergence herbicidal action against VERPE; conditions: visual assessment about 3 weeks after treatment
Procedure, shortened: as §1

Setaria viridis [23] = assay: Pre-emergence herbicidal action against SETVI
Procedure, shortened: as §2

Echinochloa crus-galli [24] = assay: Pre-emergence herbicidal action against ECHCG; conditions: visual score after 3 weeks vs untreated controls
Procedure, shortened: as §2

Cyperus esculentus [25] = assay: Post-emergence herbicidal action against CYPES; conditions: visual assessment about 3 weeks after treatment
Procedure, shortened: as §1

Abutilon theophrasti [26] = assay: Pre-emergence herbicidal action against ABUTH; conditions: visual score after 3 weeks vs untreated controls
Procedure, shortened: as §2

Setaria viridis [27] = assay: Post-emergence herbicidal action against SETVI; conditions: for Post-emergence action against SETVI in %: visual assessment about 3 weeks after treatment
Procedure, shortened: as §1

Stellaria media [28] = assay: Pre-emergence herbicidal action against STEME
Procedure, shortened: as §2

Lolium rigidum [29] = assay: Pre-emergence herbicidal action against LOLRI
Procedure, shortened: as §2

Pharbitis purpurea [30] = assay: Pre-emergence herbicidal action against PHBPU; conditions: 320 g/ha; visual score after 3 weeks vs untreated controls
Procedure, shortened: as §2

[31] = comparative experiment, 5 g a.i./ha

CCn1nnnc1NC(=O)c1ccc(C(F)(F)F)c(C(=O)N(C)C)c1Cl [Example 2-123]
Post-emergence action against ECHCG in % (Echinochloa crus-galli [1]; 5 g/ha): 100%
Post-emergence action against ECHCG in % (Echinochloa crus-galli [1]; 20 g/ha): 100%
Post-emergence action against ECHCG in % (Echinochloa crus-galli [1]; 80 g/ha): 100%
Post-emergence action against VIOTR in % (Viola tricolor [2]; 20 g/ha): 100%
Post-emergence action against VIOTR in % (Viola tricolor [2]; 80 g/ha): 100%
Post-emergence action against ALOMY (Alopecurus myosuroides [3]; 5 g/ha): 90%
Post-emergence action against ALOMY (Alopecurus myosuroides [3]; 20 g/ha): 100%
Post-emergence action against ALOMY (Alopecurus myosuroides [3]; 80 g/ha): 100%
Herbicidal action against ALOMY (Alopecurus myosuroides [3]; [31]): 90
Pre-emergence action against MATIN (Matricaria inodora [4]; 80 g/ha): 100%
Pre-emergence action against MATIN (Matricaria inodora [4]; 320 g/ha): 100%
Post-emergence action against PHBPU in % (Pharbitis purpurea [5]; 5 g/ha): 80%
Post-emergence action against PHBPU in % (Pharbitis purpurea [5]; 20 g/ha): 90%
Post-emergence action against PHBPU in % (Pharbitis purpurea [5]; 80 g/ha): 100%
Herbicidal action against PHBPU (Pharbitis purpurea [5]; [31]): 80
Pre-emergence action against CYPES (Cyperus esculentus [6]): 80%
Post-emergence action against ABUTH (Abutilon theophrasti [7]; 5 g/ha): 100%
Post-emergence action against ABUTH (Abutilon theophrasti [7]; 20 g/ha): 100%
Post-emergence action against ABUTH (Abutilon theophrasti [7]; 80 g/ha): 100%
Post-emergence action against MATIN in % (Matricaria inodora [8]; 5 g/ha): 90%
Post-emergence action against MATIN in % (Matricaria inodora [8]; 20 g/ha): 90%
Post-emergence action against MATIN in % (Matricaria inodora [8]; 80 g/ha): 100%
Herbicidal action against MATIN (Matricaria inodora [8]; [31]): 90
Pre-emergence action against HORMU (Hordeum murinum [9]; 80 g/ha): 80%
Pre-emergence action against HORMU (Hordeum murinum [9]; 320 g/ha): 100%
Post-emergence action against POLCO in % (Polygonum convolvulus [10]): 90%
Post-emergence action against AMARE in % (Amaranthus retroflexus [11]; 5 g/ha): 100%
Post-emergence action against AMARE in % (Amaranthus retroflexus [11]; 20 g/ha): 100%
Post-emergence action against AMARE in % (Amaranthus retroflexus [11]; 80 g/ha): 100%
Pre-emergence action against AVEFA (Avena fatua [12]; 80 g/ha): 90%
Pre-emergence action against AVEFA (Avena fatua [12]; 320 g/ha): 100%
Pre-emergence action against VERPE (Veronica persica [13]): 100%
Post-emergence action against HORMU in % (Hordeum murinum [14]; 20 g/ha): 90%
Post-emergence action against HORMU in % (Hordeum murinum [14]; 80 g/ha): 100%
Pre-emergence action against VIOTR (Viola tricolor [15]; 80 g/ha): 90%
Pre-emergence action against VIOTR (Viola tricolor [15]; 320 g/ha): 100%
Pre-emergence action against ALOMY (Alopecurus myosuroides [16]; 80 g/ha): 90%
Pre-emergence action against ALOMY (Alopecurus myosuroides [16]; 320 g/ha): 100%
Post-emergence action against AVEFA in % (Avena fatua [17]; 5 g/ha): 80%
Post-emergence action against AVEFA in % (Avena fatua [17]; 20 g/ha): 100%
Post-emergence action against AVEFA in % (Avena fatua [17]; 80 g/ha): 100%
Herbicidal action against AVEFA (Avena fatua [17]; [31]): 80
Pre-emergence action against AMARE (Amaranthus retroflexus [18]; 20 g/ha): 90%
Pre-emergence action against AMARE (Amaranthus retroflexus [18]; 80 g/ha): 100%
Pre-emergence action against AMARE (Amaranthus retroflexus [18]; 320 g/ha): 100%
Post-emergence action against STEME in % (Stellaria media [19]; 5 g/ha): 100%
Post-emergence action against STEME in % (Stellaria media [19]; 20 g/ha): 100%
Post-emergence action against STEME in % (Stellaria media [19]; 80 g/ha): 100%
Herbicidal action against STEME (Stellaria media [19]; [31]): 100
Post-emergence action against LOLRI in % (Lolium rigidum [20]): 100%
Pre-emergence action against POLCO (Polygonum convolvulus [21]): 80%
Post-emergence action against VERPE in % (Veronica persica [22]; 20 g/ha): 80%
Post-emergence action against VERPE in % (Veronica persica [22]; 80 g/ha): 100%
Pre-emergence action against SETVI (Setaria viridis [23]; 20 g/ha): 90%
Pre-emergence action against SETVI (Setaria viridis [23]; 80 g/ha): 100%
Pre-emergence action against SETVI (Setaria viridis [23]; 320 g/ha): 100%
Pre-emergence action against ECHCG (Echinochloa crus-galli [24]; 20 g/ha): 80%
Pre-emergence action against ECHCG (Echinochloa crus-galli [24]; 80 g/ha): 100%
Pre-emergence action against ECHCG (Echinochloa crus-galli [24]; 320 g/ha): 100%
Post-emergence action against CYPES in % (Cyperus esculentus [25]; 5 g/ha): 80%
Post-emergence action against CYPES in % (Cyperus esculentus [25]; 20 g/ha): 80%
Post-emergence action against CYPES in % (Cyperus esculentus [25]; 80 g/ha): 90%
Pre-emergence action against ABUTH (Abutilon theophrasti [26]; 20 g/ha): 100%
Pre-emergence action against ABUTH (Abutilon theophrasti [26]; 80 g/ha): 100%
Pre-emergence action against ABUTH (Abutilon theophrasti [26]; Dosage column 320 g/ha (heading prints 3200 g/ha)): 100%
Post-emergence action against SETVI in % (Setaria viridis [27]; 5 g/ha): 100%
Post-emergence action against SETVI in % (Setaria viridis [27]; 20 g/ha): 100%
Post-emergence action against SETVI in % (Setaria viridis [27]; 80 g/ha): 100%
Herbicidal action against SETVI (Setaria viridis [27]; [31]): 100
Pre-emergence action against STEME (Stellaria media [28]; 20 g/ha): 90%
Pre-emergence action against STEME (Stellaria media [28]; 80 g/ha): 100%
Pre-emergence action against STEME (Stellaria media [28]; 320 g/ha): 100%
Pre-emergence action against LOLRI (Lolium rigidum [29]; 80 g/ha): 80%
Pre-emergence action against LOLRI (Lolium rigidum [29]; 320 g/ha): 100%
Pre-emergence action against PHBPU (Pharbitis purpurea [30]): 80%
